Laboratory results taken from paper PMC5218480 (PLoS ONE, 2017).

Tested on: MV-4-11 cells
Assay: Gene expression microarray analysis (Affymetrix PrimeView) and GSEA
Type: cell-based, human
Design: RFU PODN (11730768_x_at) / Fold change /veh PODN (11730768_x_at) / RFU LINC00158 (11744669_a_at) / Fold change /veh LINC00158 (11744669_a_at) / RFU DUSP10 (11751237_a_at) / Fold change /veh DUSP10 (11751237_a_at) / RFU ID3 (11757404_x_at) / Fold change /veh ID3 (11757404_x_at) / RFU PLEKHG5 (11737974_s_at) / Fold change /veh PLEKHG5 (11737974_s_at) / RFU LRRC4B (11730491_at) / Fold change /veh LRRC4B (11730491_at) / RFU GIMAP4 (11747438_a_at) / Fold change /veh GIMAP4 (11747438_a_at) / RFU KRT8 (11758183_x_at) / Fold change /veh KRT8 (11758183_x_at) / RFU CNN1 (11734310_a_at) / Fold change /veh CNN1 (11734310_a_at) / RFU VPS37D (11726825_at) / Fold change /veh VPS37D (11726825_at) / RFU C10orf10 (11716522_x_at) / Fold change /veh C10orf10 (11716522_x_at) / RFU KIR2DL2 /// KIR2DL4 /// KIR2DL5A /// KIR2DL5B /// KIR2DS1 /// KIR2DS2 /// KIR2DS3 /// KIR2DS4 /// KIR3DL3 /// KIR3DL3 /// KIR3DS1 (11738374_at) / Fold change /veh KIR2DL2 /// KIR2DL4 /// KIR2DL5A /// KIR2DL5B /// KIR2DS1 /// KIR2DS2 /// KIR2DS3 /// KIR2DS4 /// KIR3DL3 /// KIR3DL3 /// KIR3DS1 (11738374_at) / RFU C1QL1 (11718748_at) / Fold change /veh C1QL1 (11718748_at) / RFU TMPRSS4 (11747572_a_at) / Fold change /veh TMPRSS4 (11747572_a_at) / RFU HAMP (11756126_x_at) / Fold change /veh HAMP (11756126_x_at) / RFU RNFT2 (11725882_a_at) / Fold change /veh RNFT2 (11725882_a_at) / RFU NR4A2 (11747474_a_at) / Fold change /veh NR4A2 (11747474_a_at) / RFU ABCC12 (11746883_a_at) / Fold change /veh ABCC12 (11746883_a_at) / RFU TMEM136 (11760407_x_at) / Fold change /veh TMEM136 (11760407_x_at) / RFU CLDN22 /// WWC2 (11732394_at) / Fold change /veh CLDN22 /// WWC2 (11732394_at) / RFU HLA-DPB1 (11760878_x_at) / Fold change /veh HLA-DPB1 (11760878_x_at) / RFU SPINT1 (11716480_a_at) / Fold change /veh SPINT1 (11716480_a_at) / RFU GAP43 (11754022_s_at) / Fold change /veh GAP43 (11754022_s_at) / RFU A4GNT (11735810_at) / Fold change /veh A4GNT (11735810_at) / RFU PRB3 (11715151_x_at) / Fold change /veh PRB3 (11715151_x_at) / RFU TUBB4B (11761932_at) / Fold change /veh TUBB4B (11761932_at) / RFU CAPN14 (11732068_a_at) / Fold change /veh CAPN14 (11732068_a_at) / RFU TMCC2 (11721928_a_at) / Fold change /veh TMCC2 (11721928_a_at) / RFU IRGQ (11745062_a_at) / Fold change /veh IRGQ (11745062_a_at) / RFU FAM174B (11720279_a_at) / Fold change /veh FAM174B (11720279_a_at) / RFU TMPRSS4 (11748680_a_at) / Fold change /veh TMPRSS4 (11748680_a_at) / RFU FAM212B (11763350_a_at) / Fold change /veh FAM212B (11763350_a_at) / RFU PLEKHG5 (11743358_a_at) / Fold change /veh PLEKHG5 (11743358_a_at) / RFU ZSCAN30 (11745921_a_at) / Fold change /veh ZSCAN30 (11745921_a_at) / RFU CMKLR1 (11741424_a_at) / Fold change /veh CMKLR1 (11741424_a_at) / RFU LOC101060620 /// MAPK8IP1 (11723275_at) / Fold change /veh LOC101060620 /// MAPK8IP1 (11723275_at) / RFU SPTSSB (11747773_x_at) / Fold change /veh SPTSSB (11747773_x_at) / RFU PRSS12 (11739890_at) / Fold change /veh PRSS12 (11739890_at) / RFU BIN1 (11741810_x_at) / Fold change /veh BIN1 (11741810_x_at) / RFU WNT11 (11732464_a_at) / Fold change /veh WNT11 (11732464_a_at) / RFU C10orf10 (11716521_a_at) / Fold change /veh C10orf10 (11716521_a_at) / RFU C5orf56 (11738089_at) / Fold change /veh C5orf56 (11738089_at) / RFU CYB561 (11721691_x_at) / Fold change /veh CYB561 (11721691_x_at) / RFU ANKRD19P (11752326_a_at) / Fold change /veh ANKRD19P (11752326_a_at) / RFU OR2T12 /// OR2T33 /// OR2T8 (11738714_s_at) / Fold change /veh OR2T12 /// OR2T33 /// OR2T8 (11738714_s_at) / RFU VCAN (11748164_a_at) / Fold change /veh VCAN (11748164_a_at) / RFU JSRP1 (11732532_at) / Fold change /veh JSRP1 (11732532_at) / RFU KRTAP10-11 (11738290_x_at) / Fold change /veh KRTAP10-11 (11738290_x_at) / RFU MYO3A (11730013_a_at) / Fold change /veh MYO3A (11730013_a_at) / RFU EBF3 (11725865_a_at) / Fold change /veh EBF3 (11725865_a_at) / RFU CAMK2N1 (11719241_x_at) / Fold change /veh CAMK2N1 (11719241_x_at) / RFU C5orf56 (11738088_a_at) / Fold change /veh C5orf56 (11738088_a_at) / RFU OLFML3 (11715873_a_at) / Fold change /veh OLFML3 (11715873_a_at) / RFU LOC100653217 /// NTM (11731650_a_at) / Fold change /veh LOC100653217 /// NTM (11731650_a_at) / RFU MAPK11 (11762145_a_at) / Fold change /veh MAPK11 (11762145_a_at) / RFU FIZ1 (11724087_x_at) / Fold change /veh FIZ1 (11724087_x_at) / RFU OASL (11726364_x_at) / Fold change /veh OASL (11726364_x_at) / RFU SOX15 (11748057_x_at) / Fold change /veh SOX15 (11748057_x_at) / RFU CD79A (11719716_a_at) / Fold change /veh CD79A (11719716_a_at) / RFU HIST1H1D (11736915_at) / Fold change /veh HIST1H1D (11736915_at) / RFU CASKIN2 (11723855_a_at) / Fold change /veh CASKIN2 (11723855_a_at) / RFU LOC730098 (11760151_x_at) / Fold change /veh LOC730098 (11760151_x_at) / RFU OR4N2 (11742367_at) / Fold change /veh OR4N2 (11742367_at) / RFU PRRT2 (11749266_a_at) / Fold change /veh PRRT2 (11749266_a_at) / RFU SNX32 (11753110_a_at) / Fold change /veh SNX32 (11753110_a_at) / RFU CDHR5 (11726645_a_at) / Fold change /veh CDHR5 (11726645_a_at) / RFU RCAN1 (11760418_a_at) / Fold change /veh RCAN1 (11760418_a_at) / RFU FAM167A (11723789_a_at) / Fold change /veh FAM167A (11723789_a_at) / RFU FAM26E (11764081_at) / Fold change /veh FAM26E (11764081_at) / RFU ISYNA1 (11749810_s_at) / Fold change /veh ISYNA1 (11749810_s_at) / RFU ACY1 (11761880_at) / Fold change /veh ACY1 (11761880_at) / RFU 11764098_at / Fold change /veh 11764098_at / RFU SAMD14 (11745864_x_at) / Fold change /veh SAMD14 (11745864_x_at) / RFU NPB (11741838_a_at) / Fold change /veh NPB (11741838_a_at) / RFU TMPRSS6 (11731388_a_at) / Fold change /veh TMPRSS6 (11731388_a_at) / RFU KRTAP10-2 (11738614_at) / Fold change /veh KRTAP10-2 (11738614_at) / RFU ARHGAP8 /// PRR5-ARHGAP8 (11727945_x_at) / Fold change /veh ARHGAP8 /// PRR5-ARHGAP8 (11727945_x_at) / RFU KRTAP5-7 /// NADSYN1 (11734609_at) / Fold change /veh KRTAP5-7 /// NADSYN1 (11734609_at) / RFU RASL12 (11751679_a_at) / Fold change /veh RASL12 (11751679_a_at) / RFU CDKN2B (11736163_a_at) / Fold change /veh CDKN2B (11736163_a_at) / RFU PRF1 (11729649_at) / Fold change /veh PRF1 (11729649_at) / RFU, ZNF638 /// ZNF638-IT1 / Fold change vs veh, ZNF638 /// ZNF638-IT1 / RFU, PANK3 / Fold change vs veh, PANK3 / RFU, SH3YL1 / Fold change vs veh, SH3YL1 / RFU, ZEB2 / Fold change vs veh, ZEB2 / RFU, NRIP1 / Fold change vs veh, NRIP1 / RFU, PTTG1IP / Fold change vs veh, PTTG1IP / RFU, CAPN2 / Fold change vs veh, CAPN2 / RFU, MED14 / Fold change vs veh, MED14 / RFU, SNORA58 / Fold change vs veh, SNORA58 / RFU, C1orf63 / Fold change vs veh, C1orf63 / RFU, LRRFIP1 / Fold change vs veh, LRRFIP1 / RFU, NDUFAF7 / Fold change vs veh, NDUFAF7 / RFU, SLC12A2 / Fold change vs veh, SLC12A2 / RFU, IBTK / Fold change vs veh, IBTK / RFU, ESF1 / Fold change vs veh, ESF1 / Fold change vs veh, TMEM50B / RFU, TAOK1 / Fold change vs veh, TAOK1 / RFU, ACBD3 / Fold change vs veh, ACBD3 / RFU, TMA16 / Fold change vs veh, TMA16 / RFU, RWDD3 / Fold change vs veh, RWDD3 / RFU, BCAT1 / Fold change vs veh, BCAT1 / RFU, EDEM3 / Fold change vs veh, EDEM3 / RFU, TMEM33 / Fold change vs veh, TMEM33 / RFU, WDR75 / Fold change vs veh, WDR75 / RFU, AHCTF1 / Fold change vs veh, AHCTF1 / RFU, TFRC / Fold change vs veh, TFRC / RFU, ZDHHC17 / Fold change vs veh, ZDHHC17 / RFU, NOM1 / Fold change vs veh, NOM1 / RFU, ARL8B / Fold change vs veh, ARL8B / RFU, ZBTB11 / Fold change vs veh, ZBTB11 / RFU, TAMM41 / Fold change vs veh, TAMM41 / RFU, KIAA1704 /// LOC100996395 / Fold change vs veh, KIAA1704 /// LOC100996395 / RFU, ING1 / Fold change vs veh, ING1 / RFU, TRMT61B / Fold change vs veh, TRMT61B / RFU, FUBP3 / Fold change vs veh, FUBP3 / RFU, TP53 / Fold change vs veh, TP53 / RFU, TNKS2 / Fold change vs veh, TNKS2 / RFU, ZFP14 / Fold change vs veh, ZFP14 / RFU, ACTR2 / Fold change vs veh, ACTR2 / RFU, PPP3R1 / Fold change vs veh, PPP3R1 / RFU, PIK3R1 / Fold change vs veh, PIK3R1 / RFU, HNRNPA1 / Fold change vs veh, HNRNPA1 / RFU, RNF170 / Fold change vs veh, RNF170 / RFU, ZNF28 / Fold change vs veh, ZNF28 / RFU, RNGTT / Fold change vs veh, RNGTT / RFU, OGT / Fold change vs veh, OGT / RFU, BRD1 / Fold change vs veh, BRD1 / RFU, MARS / Fold change vs veh, MARS / RFU, ZNF655 / Fold change vs veh, ZNF655 / RFU, FAHD1 / Fold change vs veh, FAHD1 / RFU, BDP1 / Fold change vs veh, BDP1 / RFU, LRRCC1 / Fold change vs veh, LRRCC1 / RFU, ARID1A / Fold change vs veh, ARID1A / RFU, ZNF146 / Fold change vs veh, ZNF146 / RFU, ZNF330 / Fold change vs veh, ZNF330 / RFU, GPN3 / Fold change vs veh, GPN3 / RFU, C9orf123 / Fold change vs veh, C9orf123 / RFU, N4BP2L2 / Fold change vs veh, N4BP2L2 / RFU, ARFIP1 / Fold change vs veh, ARFIP1 / RFU, FAM179B / Fold change vs veh, FAM179B / RFU, BCL10 / Fold change vs veh, BCL10 / RFU, UHRF1BP1L / Fold change vs veh, UHRF1BP1L / RFU, BET1 / Fold change vs veh, BET1 / RFU, CNOT2 / Fold change vs veh, CNOT2 / RFU, ZNF268 / Fold change vs veh, ZNF268 / Fold change vs veh, ZNF507 / RFU, DGCR2 / Fold change vs veh, DGCR2 / RFU, WDSUB1 / Fold change vs veh, WDSUB1 / Fold change vs veh, HSP90B1 /// MIR3652 / RFU, ADSS / Fold change vs veh, ADSS / RFU, GK / Fold change vs veh, GK / RFU, ZNF148 / Fold change vs veh, ZNF148 / RFU, TAF9 / Fold change vs veh, TAF9 / RFU, SLC1A5 / Fold change vs veh, SLC1A5 / RFU, SLMO2 / Fold change vs veh, SLMO2 / RFU, ABCC4 / Fold change vs veh, ABCC4 / RFU, LOC101060439 /// RAP1B / Fold change vs veh, LOC101060439 /// RAP1B / RFU, RFX7 / Fold change vs veh, RFX7 / RFU, GTPBP10 / Fold change vs veh, GTPBP10 / RFU, CNEP1R1 / Fold change vs veh, CNEP1R1 / RFU, BIVM-ERCC5 /// ERCC5 / Fold change vs veh, BIVM-ERCC5 /// ERCC5 / RFU, ILF3 / Fold change vs veh, ILF3 / RFU 11762660_at / Fold change /veh 11762660_at / RFU VCAN (11757783_s_at) / Fold change /veh VCAN (11757783_s_at) / RFU DDX43 (11728927_at) / Fold change /veh DDX43 (11728927_at) / RFU KRT8 (11758188_x_at) / Fold change /veh KRT8 (11758188_x_at) / RFU NKD1 (11759106_at) / Fold change /veh NKD1 (11759106_at) / RFU SRD5A1 (11742802_a_at) / Fold change /veh SRD5A1 (11742802_a_at) / RFU TPSAB1 /// TPSB2 (11721975_s_at) / Fold change /veh TPSAB1 /// TPSB2 (11721975_s_at) / RFU GSTM3 (11746129_a_at) / Fold change /veh GSTM3 (11746129_a_at) / RFU IL23R (11737362_x_at) / Fold change /veh IL23R (11737362_x_at) / RFU TMEM51 (11727254_a_at) / Fold change /veh TMEM51 (11727254_a_at) / RFU PIWIL2 (11732686_x_at) / Fold change /veh PIWIL2 (11732686_x_at) / RFU ORM1 (11744905_x_at) / Fold change /veh ORM1 (11744905_x_at) / RFU CCDC152 (11743942_at) / Fold change /veh CCDC152 (11743942_at) / RFU ECM1 (11717891_a_at) / Fold change /veh ECM1 (11717891_a_at) / RFU IL23R (11748794_a_at) / Fold change /veh IL23R (11748794_a_at) / RFU TNFAIP8L3 (11732012_x_at) / Fold change /veh TNFAIP8L3 (11732012_x_at) / RFU MBOAT4 (11741988_at) / Fold change /veh MBOAT4 (11741988_at) / RFU 11764193_at / Fold change /veh 11764193_at / RFU TMEM53 (11763286_at) / Fold change /veh TMEM53 (11763286_at) / RFU MAGEB2 (11727129_at) / Fold change /veh MAGEB2 (11727129_at) / RFU TMEM200A (11744735_a_at) / Fold change /veh TMEM200A (11744735_a_at) / RFU CCDC152 (11751479_a_at) / Fold change /veh CCDC152 (11751479_a_at) / RFU FAM211A (11726209_a_at) / Fold change /veh FAM211A (11726209_a_at) / RFU RGS16 (11746705_a_at) / Fold change /veh RGS16 (11746705_a_at) / RFU VCAN (11755009_s_at) / Fold change /veh VCAN (11755009_s_at) / RFU RHOB (11743442_s_at) / Fold change /veh RHOB (11743442_s_at) / RFU RGS16 (11720943_a_at) / Fold change /veh RGS16 (11720943_a_at) / RFU RGS16 (11720944_at) / Fold change /veh RGS16 (11720944_at) / RFU, VPS4B / Fold change vs veh, VPS4B / RFU, CREB1 / Fold change vs veh, CREB1 / RFU, DNAJC13 / Fold change vs veh, DNAJC13 / RFU, GNAQ / Fold change vs veh, GNAQ / RFU, CDK5R1 / Fold change vs veh, CDK5R1 / RFU, ZRANB3 / Fold change vs veh, ZRANB3 / RFU, CUL4A / Fold change vs veh, CUL4A / RFU, CCNY / Fold change vs veh, CCNY / RFU, UFL1 / Fold change vs veh, UFL1 / RFU, COG3 / Fold change vs veh, COG3 / RFU, DIAPH2 / Fold change vs veh, DIAPH2 / RFU, SKA2 / Fold change vs veh, SKA2 / RFU, AFF3 / Fold change vs veh, AFF3 / RFU, LMF1 / Fold change vs veh, LMF1 / RFU, IPO11 / Fold change vs veh, IPO11 / RFU, DFFB / Fold change vs veh, DFFB / RFU, FOXP1 / Fold change vs veh, FOXP1 / RFU, CARD8 / Fold change vs veh, CARD8 / RFU, STRN3 / Fold change vs veh, STRN3 / RFU, ADK / Fold change vs veh, ADK / RFU, RASSF2 / Fold change vs veh, RASSF2 / RFU, WIPF1 / Fold change vs veh, WIPF1 / RFU, LARP1B / Fold change vs veh, LARP1B / RFU, RASA1 / Fold change vs veh, RASA1 / RFU, RB1 / Fold change vs veh, RB1 / RFU, PPFIA1 / Fold change vs veh, PPFIA1 / RFU, MAT2A / Fold change vs veh, MAT2A / RFU, CCT5 / Fold change vs veh, CCT5 / RFU, WDR92 / Fold change vs veh, WDR92 / RFU, CUX1 / Fold change vs veh, CUX1 / RFU, TTC7A / Fold change vs veh, TTC7A / RFU, TMEM135 / Fold change vs veh, TMEM135 / RFU, DEPTOR / Fold change vs veh, DEPTOR / RFU, CPM / Fold change vs veh, CPM / RFU, DNAJB6 / Fold change vs veh, DNAJB6 / RFU, CACNA2D3 / Fold change vs veh, CACNA2D3 / RFU, DTX4 / Fold change vs veh, DTX4 / RFU, TFCP2 / Fold change vs veh, TFCP2 / RFU, GMCL1 /// GMCL1P1 / Fold change vs veh, GMCL1 /// GMCL1P1 / RFU, AEBP2 / Fold change vs veh, AEBP2 / RFU, SNHG1 /// SNORD22 /// SNORD25 /// SNORD26 /// SNORD27 /// SNORD28 /// SNORD29 /// SNORD31 / Fold change vs veh, SNHG1 /// SNORD22 /// SNORD25 /// SNORD26 /// SNORD27 /// SNORD28 /// SNORD29 /// SNORD31 / Fold change (Aza/veh), C12orf56 (ProbeSet 11735607_a_at) / Fold change (ACY-1035/veh), C12orf56 (ProbeSet 11735607_a_at) / Fold change (Aza/veh), FGFR1OP (ProbeSet 11751329_s_at) / Fold change (ACY-1035/veh), FGFR1OP (ProbeSet 11751329_s_at) / Fold change (Aza/veh), VPS36 (ProbeSet 11739960_a_at) / Fold change (ACY-1035/veh), VPS36 (ProbeSet 11739960_a_at) / RFU SYPL1 (11715823_x_at) / Fold change /veh SYPL1 (11715823_x_at) / RFU IGFBP7 (11715501_s_at) / Fold change /veh IGFBP7 (11715501_s_at) / RFU REEP3 (11722064_at) / Fold change /veh REEP3 (11722064_at) / RFU IGLL1 (11728026_x_at) / Fold change /veh IGLL1 (11728026_x_at): dose or concentration left out as unconfirmed
Details: ProbeSet 11725787_a_at; LIST B

With Nc1ncn([C@@H]2O[C@H](CO)[C@@H](O)[C@H]2O)c(=O)n1 [azacitidine] the “RFU, TMA16” value was 152.00 RFU.
